In patent publication US9752151B2, “Composition for treatment or metastasis suppression of cancers which includes p34 expression inhibitor or activity inhibitor as active ingredient” (THE ASAN FOUNDATION, priority 2013, dated 2017):

Assays:
PTEN [1] = assay: PTEN ubiquitination (PTEN immunoprecipitation, ubiquitin Western blotting) in LS1034; type: cell-based, human; conditions: 1 μM, 24 hours
Protocol: (§1) The p34 activity inhibitor, Compound 27, in a concentration of 1 μM was treated with human breast cancer cell lines MDA-MB-231 and colorectal cancer cell lines LS1034 for 24 hours, and immunoprecipitation was performed using a PTEN antibody. Thereafter, Western blotting was performed using an ubiquitin antibody. The result is illustrated in FIG. 62.

[2] = target: T1, p34 protein and NEDD4-1 protein (Homo sapiens, UniProt Q9UHV2); assay: GST-pull down of p34 and NEDD4-1 proteins binding; conditions: 1 mM or 3 mM, 30° C., 1 hour, purified proteins
T1 construct: made in house; host or cells: E. coli BL-21 (DE3) (printed for GST-p34 in the earlier pull-down)
T1 sequence (Q9UHV2 1-236): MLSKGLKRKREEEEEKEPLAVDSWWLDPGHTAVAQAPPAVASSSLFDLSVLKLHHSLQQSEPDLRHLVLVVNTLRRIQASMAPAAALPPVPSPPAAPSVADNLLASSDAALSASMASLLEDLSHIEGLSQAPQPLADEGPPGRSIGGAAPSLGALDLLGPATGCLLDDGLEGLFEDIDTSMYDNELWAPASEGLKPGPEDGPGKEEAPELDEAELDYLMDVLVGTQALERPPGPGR
Protocol: Purified NEDD4-1 protein and p34 protein were treated with a reaction buffer (20 mM Tris-HCl pH7.5, 120 mM NaCl) and the p34 activity inhibitor Compound 27 in a concentration of 1 mM or 3 mM, and reacted at 30° C. for 1 hour. Thereafter, the reaction was stopped using GST-pull down buffer (20 mM Tris-HCl pH8.0, 500 mM NaCl, 1% Triton X-100, 0.02% BSA, 5 mM mercaptoethanol), and then pulled down with glutathione-sepharose beads at 4° C. Western blotting was performed using anti-His and anti-GST antibodies. The result is illustrated in FIG. 63.

MDA-MB-231 = assay: Trypan blue dye cell death, MDA-MB-231; type: cell-based, human; conditions: MDA-MB-231, per each concentration, 48 hours
Protocol: (§2) Human breast cancer cell lines MDA-MB-231 were treated with the p34 activity inhibitor Compound 27 per each concentration for 48 hours, and then trypan blue dye and Western blotting were performed. The result is illustrated in FIG. 64.

PTEN [3] = assay: PTEN ubiquitination (PTEN immunoprecipitation, ubiquitin Western blotting) in MDA-MB-231; type: cell-based, human; conditions: 1 μM, 24 hours
Protocol: as §1

[4] = tested on: PTEN protein, Akt, caspase3; assay: Western blotting after p34 activity inhibitor, MDA-MB-231; type: cell-based, human; conditions: MDA-MB-231, 48 hours
Protocol: as §2

LS1034 = assay: Trypan blue dye cell death, LS1034; type: cell-based, human; conditions: LS1034, per each concentration, 48 hours
Protocol: as §2
(§3) The same experiments were performed using human colorectal cancer cell lines LS1034. The results are illustrated in FIGS. 66 and 67.

PTEN [5] = assay: PTEN lipid phosphatase activity, LS1034; type: cell-based, human; conditions: LS1034, 48 hours, OD 650 nm
Protocol: (§4) Also, human breast cancer cell lines MDA-MB-231 were treated with p34 activity inhibitor Compound 27 per each concentration for 48 hours, and cell sap was collected and immunoprecipitation was performed using a PTEN antibody. Thereafter, it was reacted with a reaction buffer solution (100 mM Tris-HCl pH8.0, 10 mM DTT) containing water-soluble diC8-phosphatidylinositol 3,4,5 tri-phosphate at 37° C. for 40 minutes, and only the supernatant was collected to be reacted with Biomol Green solution at room temperature for 30 minutes. Then, PTEN lipid phosphatase activity was measured at OD 650 nm. The result is illustrated in FIG. 65.
as §3

PTEN [6] = assay: PTEN lipid phosphatase activity, MDA-MB-231; type: cell-based, human; conditions: MDA-MB-231, 48 hours, OD 650 nm
Protocol: as §4

[7] = tested on: PTEN protein, Akt, caspase3; assay: Western blotting after p34 activity inhibitor, LS1034; type: cell-based, human; conditions: LS1034, 48 hours
Protocol: as §2, §3

PTEN protein [8] = assay: Western blotting after co-transfection of GFP-tagged p34 and NEDD4-1-siRNA/shRNA, 293 cells; type: cell-based; conditions: 293 cells co-transfected with GFP-tagged p34; decreased with GFP-tagged p34 alone
Protocol: (§5) The expression levels of each protein were analyzed using Western blotting. The result is illustrated in FIG. 23.

PTEN protein [9] = assay: Western blotting after co-transfection of GFP-tagged p34 and NEDD4-1-siRNA/shRNA, MEF cells; type: cell-based, mouse; conditions: MEF cells co-transfected with GFP-tagged p34; decreased with GFP-tagged p34 alone
Protocol: as §5

GST-PTEN fusion protein [10] = target: T2, GST-PTEN fusion protein (UniProt P60484 1-403); assay: GST pull-down with purified recombinant GST-PTEN, Western blotting (FIG. 8)
T2 construct: Purified recombinant protein; also called purified recombinant GST-PTEN; not shown: GST tag
T2 sequence (P60484 whole entry, the tested form may be a part): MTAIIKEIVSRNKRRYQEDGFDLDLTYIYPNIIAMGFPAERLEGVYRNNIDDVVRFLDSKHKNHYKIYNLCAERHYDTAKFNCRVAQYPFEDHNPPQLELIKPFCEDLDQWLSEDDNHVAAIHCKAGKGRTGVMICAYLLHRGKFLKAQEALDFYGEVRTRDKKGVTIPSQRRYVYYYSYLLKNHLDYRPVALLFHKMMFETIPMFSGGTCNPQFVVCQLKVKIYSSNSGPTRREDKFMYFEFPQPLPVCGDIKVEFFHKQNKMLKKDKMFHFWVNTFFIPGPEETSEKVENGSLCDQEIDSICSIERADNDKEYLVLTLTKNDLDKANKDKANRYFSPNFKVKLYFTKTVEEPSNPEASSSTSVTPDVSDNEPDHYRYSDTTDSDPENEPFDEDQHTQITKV

GST-PTEN fusion protein [11] = target: T2, GST-PTEN fusion protein; assay: GST pull-down of GST-PTEN with lysate of cells expressing Myc-NEDD4-1 and His-p34 (FIG. 11)
Protocol: In order to investigate whether p34 affects PTEN and NEDD4-1 binding, GST-PTEN fusion proteins were incubated with the lysing solution of cells expressing Myc-NEDD4-1 and His-p34, and then GST-pull down assay was performed. As a control group, GST proteins were used. The result is illustrated in FIG. 11.

[12] = target: T3, GST-tagged NEDD4-1 mutant lacking WW1 domain (GST-delWW1) (UniProt P46934-4 1-900, limits assumed); assay: GST pull-down of GST-delWW1 with lysate of cells expressing His-p34 (FIG. 10)
T3 construct: also called NEDD4-1 protein lacking the WW1 domain; not shown: GST tag
T3 sequence (looked up): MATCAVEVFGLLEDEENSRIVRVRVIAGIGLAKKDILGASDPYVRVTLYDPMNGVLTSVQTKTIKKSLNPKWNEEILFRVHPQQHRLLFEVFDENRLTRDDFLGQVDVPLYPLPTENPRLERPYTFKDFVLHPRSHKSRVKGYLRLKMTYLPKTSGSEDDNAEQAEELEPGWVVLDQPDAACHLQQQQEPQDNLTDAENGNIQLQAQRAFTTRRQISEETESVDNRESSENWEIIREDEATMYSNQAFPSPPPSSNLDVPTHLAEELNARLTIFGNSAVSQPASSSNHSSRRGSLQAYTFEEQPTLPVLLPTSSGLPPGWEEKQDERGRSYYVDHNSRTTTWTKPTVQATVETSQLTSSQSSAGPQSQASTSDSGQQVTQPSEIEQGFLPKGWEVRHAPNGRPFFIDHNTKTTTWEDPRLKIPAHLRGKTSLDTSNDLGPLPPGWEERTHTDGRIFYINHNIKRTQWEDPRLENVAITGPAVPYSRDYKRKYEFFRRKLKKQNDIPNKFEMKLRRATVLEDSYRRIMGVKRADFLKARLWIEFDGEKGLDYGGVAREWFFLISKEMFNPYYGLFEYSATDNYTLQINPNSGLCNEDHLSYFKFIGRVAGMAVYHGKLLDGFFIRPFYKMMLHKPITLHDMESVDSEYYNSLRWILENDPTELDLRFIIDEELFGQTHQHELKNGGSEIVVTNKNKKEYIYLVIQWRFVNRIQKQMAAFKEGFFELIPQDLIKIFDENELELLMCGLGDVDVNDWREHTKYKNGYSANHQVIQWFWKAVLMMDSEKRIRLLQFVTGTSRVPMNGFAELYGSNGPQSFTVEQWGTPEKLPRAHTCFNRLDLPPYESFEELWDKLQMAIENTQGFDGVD
Protocol: (2) In order to verify the above result, plasmids containing GST-tagged wild-type NEDD4-1 mutants lacking WW1 domain (GST-delWW1) were prepared. The mutant proteins of NEDD4-1 were incubated with a lysing solution isolated from cells expressing His-p34, and then GST-pull down assay was performed. The result is illustrated in FIG. 10.

For `Cc1[nH]c2ccc(-c3nnc(OCC(=O)NC(C)c4nc5ccccc5[nH]4)o3)cc2c1C` (stereo not drawn) [Compound 27], the PTEN ubiquitination (PTEN [1]) was “inhibiting PTEN ubiquitination”, the “p34 protein and NEDD4-1 protein binding” value [2] was “inhibited the p34 protein and the NEDD4-1 protein binding in a dose dependent manner” and the cell death (MDA-MB-231) was “cell death was induced”. For the same molecule, the PTEN ubiquitination (PTEN [3]) was “inhibiting PTEN ubiquitination”, the Akt dephosphorylation [4] was “Akt dephosphorylation occurred” and the PTEN protein [4] was “reactivated”. The caspase3 activation [4] was “caspase3 was activated”, the cell death (LS1034) was “cell death was induced” and the “PTEN lipid phosphatase activity” value (PTEN [5]) was “increased PTEN lipid phosphatase activity”. The “PTEN lipid phosphatase activity” value (PTEN [6]) was “increased PTEN lipid phosphatase activity”, the Akt dephosphorylation [7] was “Akt dephosphorylation occurred” and the PTEN protein [7] was “reactivated”. The caspase3 activation [7] was “caspase3 was activated”.

With “NEDD4-1-siRNA/shRNA: NEDD4-1-siRNA: 5′-TGGCGATTTGTAAACCGAA-3′ (SEQ ID NO 4) (listed as DNA, chemistry not given here)” the “levels of PTEN protein” value (PTEN protein [8]) was “remained substantially unchanged” and the “levels of PTEN protein” value (PTEN protein [9]) was “remained substantially unchanged”.

B1: p34 protein (construct not stated) (other, UniProt Q9UHV2 1-236, looked up)
chain: MLSKGLKRKREEEEEKEPLAVDSWWLDPGHTAVAQAPPAVASSSLFDLSVLKLHHSLQQSEPDLRHLVLVVNTLRRIQASMAPAAALPPVPSPPAAPSVADNLLASSDAALSASMASLLEDLSHIEGLSQAPQPLADEGPPGRSIGGAAPSLGALDLLGPATGCLLDDGLEGLFEDIDTSMYDNELWAPASEGLKPGPEDGPGKEEAPELDEAELDYLMDVLVGTQALERPPGPGR
notes: also called purified p34 protein
B1: no binding (GST-PTEN fusion protein [10]).

B2: His-tagged p34 (other, UniProt Q9UHV2 1-236, looked up)
chain: MLSKGLKRKREEEEEKEPLAVDSWWLDPGHTAVAQAPPAVASSSLFDLSVLKLHHSLQQSEPDLRHLVLVVNTLRRIQASMAPAAALPPVPSPPAAPSVADNLLASSDAALSASMASLLEDLSHIEGLSQAPQPLADEGPPGRSIGGAAPSLGALDLLGPATGCLLDDGLEGLFEDIDTSMYDNELWAPASEGLKPGPEDGPGKEEAPELDEAELDYLMDVLVGTQALERPPGPGR
notes: Expressed in cells and used as lysate; also called His-p34; not shown: His tag
B2: no binding (GST-PTEN fusion protein [11]); no binding [12].
